Key:
BJ cells [1] = experiment: Reprogramming of BJ human fibroblasts into iPSC-like clones; type: cell-based; settings: SB431542 5 μM, PD0325901 0.2 μM, Thiazovivin 0.5 μM together, day 7 to 14
Procedure: Using a reprogramming protocol described elsewhere (Driscoll et al., Stem Cell Research and Therapy 6:48 (2015)), an iPSC-like clone with MV(OCT4)P-ΔH(KLF4) (GFP)H or MV(T) vector in combination with 2 LV encoding SOX2 and cMYC was obtained. The clone obtained with vector MV(T) was analyzed for pluripotency markers (FIGS. 2B and C), for its ability to spontaneously differentiate into the three germ lineages after EB formation (not shown), and its ability to differentiate into contracting cardiomyocytes through guided cardiac differentiation (FIG. 2D).
To increase transduction efficiency the spinoculation technique was established. To reduce MV-induced toxicity, the MOI of transduction was decreased. BJ cells, a neonatal foreskin human cells were purchased from the American Type Culture Collection (ATCC #CRL 2522), and were transduced with the 4F vector at a MOI of 1 instead of 6 as described elsewhere (Driscoll et al., Stem Cell Research and Therapy 6:48 (2015)). In order to induce TLR3 activation during MV reprogramming, the transduction was performed in presence of polyI:C (a TLR3 activator). Transduced cells were subjected or not to spinoculation at 1000 rpm for 1 hour at room temperature. The culture supernatants were replaced with BJ media every three days. […] The cells were monitored until reprogrammed cells form small colonies with iPSC morphology (one to two weeks after vector transduction). […] The most efficient MOI for each vector was determined.
The ability of the MV(OCT4) mir375 to reprogram BJ cells in presence of 3LV expressing SOX2, KLF4, and cMYC was analyzed, and its efficiency was compared to MV(OCT4) and 4LV. […] Using light and fluorescence microscopy, early phases of iPSC-like clone development with MV(OCT4)miR375 were observed (15 days post transduction, FIG. 6B). […] The expression of the N mRNA in the early passages of four iPSC-like clones derived from MV(OCT4)miR375 was analyzed. […] RNA was collected at each passage and RT-PCR for N and P mRNA was analyzed. […]
The ability of the 4F* to reprogram BJ cells was analyzed. […]

BJ cells [2] = experiment: Transduction efficiency by GFP expression (microscopy, flow cytometry); type: cell-based, human; settings: added at transduction with MV vector, 48 hours
Source text: To increase transduction efficiency the spinoculation technique was established. To reduce MV-induced toxicity, the MOI of transduction was decreased. BJ cells, a neonatal foreskin human cells were purchased from the American Type Culture Collection (ATCC #CRL 2522), and were transduced with the 4F vector at a MOI of 1 instead of 6 as described elsewhere (Driscoll et al., Stem Cell Research and Therapy 6:48 (2015)). In order to induce TLR3 activation during MV reprogramming, the transduction was performed in presence of polyI:C (a TLR3 activator). Transduced cells were subjected or not to spinoculation at 1000 rpm for 1 hour at room temperature. The culture supernatants were replaced with BJ media every three days. After 9 days, optimized serum-free/feeder-free iPSC medium was added and replaced daily. The cells were monitored until reprogrammed cells form small colonies with iPSC morphology (one to two weeks after vector transduction). Pictures were taken at different stages. iPS-like clones were picked after three to four weeks, and plated at 1 colony/well in Matrigel-coated wells for further expansion. […] The most efficient MOI for each vector was determined.
Transduction efficacy of the vectors was tested at different MOI using light microscopy and flow cytometry and testing for GFP expression. BJ cells were transduced with 4F* at a MOI of 0.5 or 0.25. […]

Compound	effect of added small molecules on reprogramming efficiency of MV four factor vectors (BJ cells [1])	effect on expression of measles proteins (GFP) (BJ cells [2])
O=C(NOC[C@H](O)CO)c1ccc(F)c(F)c1Nc1ccc(I)cc1F [PD0325901]	improved efficiency	
polyI:C		does not affect the expression of measles proteins
NC(=O)c1ccc(-c2nc(-c3ccc4c(c3)OCO4)c(-c3ccccn3)[nH]2)cc1 [SB431542]	improved efficiency	
O=C(NCc1ccccc1)c1csc(Nc2ccncn2)n1 [Thiazovivin]	improved efficiency	

Reference: patent US20260132420A1, “VIRAL VECTORS FOR NUCLEAR REPROGRAMMING” (Mayor Foundation for Medical Education and Research, priority 2016, published 2026)
